What all share (assay): inhibition of tumour cell growth, NCI panel, 48 h
The subject of test [1] is OVCAR-4.
In test [2] the test system is SK-MEL-2.
Test [3] has as its system UACC-62.
For test [4], the system named is UACC-257.
The test system of test [5] is K562.
Test [6] has as its system HCT-15.
Test [7] deals with SF-539.
Test [8] relates to EKVX.
Test [9] has as its system KM12.
The test system of test [10] is SK-OV-3.
Test [11] concerns IGROV-1.
Test [12] deals with NCI-H522.
Test [13] has as its system TK-10.
Test [14] deals with SNB-75.
In test [15] the test system is ACHN.
Test [16] concerns NCI-H226.
In test [17] the test system is HL-60.
Test [18] relates to HCC 2998.
Test [19] has as its system A549.
Test [20] concerns COLO 205.

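In this assay, cells in 96-well plates receive the compound at five concentrations for 48 hours. Endpoints are linearly interpolated between the surrounding concentrations. At the GI50, growth is halved.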 The source made the active and inactive calls. Rule as the data show it: active = GI50 up to about 1.1 µM and inactive = higher. Some results are limits rather than exact numbers.

As to `O=[N+]([O-])c1ccc(C2=Nc3ccccc3SC(c3ccccc3)C2)cc1` (stereo not drawn), the GI50 in test [1] is 14.3 µM (inactive); in [2] it was 18.4 µM (inactive); in test [3], 13.7 µM (inactive); in [4] it was 26.2 µM (inactive); in test [5] it was 15.8 µM (inactive); in [6] it was 16.3 µM. Further, the GI50 in test [7] is 21.4 µM (inactive); in [8], 16.6 µM (inactive); in test [9], 17.1 µM (inactive); in test [10], 21 µM (inactive); in [11], 16 µM (inactive); in test [12], 13.4 µM (inactive). Besides, the GI50 in [13] is 38.1 µM (inactive); in test [14], 18.1 µM (inactive); in test [15] it was 18.2 µM (inactive); in [16] it was 21.7 µM (inactive); in test [17], 16.5 µM (inactive); in [18] it was 15.2 µM (inactive). Besides, the GI50 in [19] was 20.4 µM (inactive); in test [20] it was 17.5 µM (inactive).
Take `O=C(c1ccco1)C1CC(c2c(O)ccc3ccccc23)=NN1` (stereo not drawn): the GI50 in test [1] is 25.4 µM (inactive); in test [2], 16.6 µM (inactive); in test [3], 12.6 µM (inactive); in test [4] it was 20.6 µM (inactive); in [5], 12.4 µM (inactive); in [6], 19 µM. Besides, the GI50 was 13.1 µM (inactive) in test [7]; 13.2 µM (inactive) in [8]; 11.4 µM (inactive) in test [9]; 21 µM (inactive) in test [10]; 13.3 µM (inactive) in test [11]; 4.2 µM (inactive) in test [12]. The GI50 in [13] was 14.3 µM (inactive); in test [14], 11.8 µM (inactive); in test [15], 12.5 µM (inactive); in test [16], 15.2 µM (inactive); in [17], 13.5 µM (inactive); in [18], 12.1 µM (inactive). Moreover, in test [20], the GI50 was 6.37 µM (inactive).
Regarding `COC(=O)C1(Cc2ccccc2)Cc2cc3c(cc2C1)CCC3`, the GI50 is 30.7 µM (inactive) in [1]; 18.5 µM (inactive) in test [2]; 29.8 µM (inactive) in test [3]; 29.2 µM (inactive) in test [4]; 17 µM (inactive) in [5]; 28.4 µM in [6]. For the same molecule, the GI50 is 41.3 µM (inactive) in test [7]; 21.5 µM (inactive) in [8]; 22.3 µM (inactive) in test [9]; 32.3 µM (inactive) in test [10]; 24.5 µM (inactive) in [11]; 22.2 µM (inactive) in [12]. Further, the GI50 is 68.7 µM (inactive) in [13]; 20.3 µM (inactive) in test [14]; 30 µM (inactive) in test [15]; 22 µM (inactive) in test [16]; 14.1 µM (inactive) in test [17]; 34.1 µM (inactive) in test [18]. Besides, the results for the GI50 in test [19] and in test [20] were 29.6 µM (inactive) and 16.7 µM (inactive), respectively.
As for `COc1ccc(/C=C2\CC3C4CC=C5C[C@@H](O)CC[C@]5(C)C4CC[C@]3(C)\C2=N\O)cc1OC` (stereo partly drawn), the GI50 was 5.02 µM (inactive) in test [1]; 7.57 µM (inactive) in [2]; 10.3 µM (inactive) in [3]; 7.94 µM (inactive) in [4]; 4.98 µM (inactive) in test [5]; 4.32 µM in test [6]. Further, the GI50 is 7.26 µM (inactive) in [7]; 6 µM (inactive) in test [8]; 7.5 µM (inactive) in test [9]; 49.3 µM (inactive) in test [10]; 38.8 µM (inactive) in test [11]; 13.9 µM (inactive) in test [12]. For the same molecule, the GI50 is 5.09 µM (inactive) in test [13]; 2.33 µM (inactive) in [14]; 3.98 µM (inactive) in test [15]; 7.28 µM (inactive) in test [16]; 11.2 µM (inactive) in test [17]; 7.13 µM (inactive) in test [18]. For the same molecule, the GI50 was 5.2 µM (inactive) in test [19] and 5.13 µM (inactive) in test [20].
In the case of `COc1ccc(/C(Cl)=C(\C=O)c2ccc(OC)cc2)cc1`, the GI50 in [1] was 48.1 µM (inactive); in test [2] it was > 100 µM (inactive); in test [3], > 100 µM (inactive); in test [4], 72.4 µM (inactive); in test [5] it was 63 µM (inactive); in [6], 43.7 µM. Also, the GI50 was > 100 µM (inactive) in test [7]; > 100 µM (inactive) in test [8]; > 100 µM (inactive) in [10]; > 100 µM (inactive) in [11]; 18.3 µM (inactive) in [12]; > 100 µM (inactive) in test [13]. In addition, the GI50 in [14] was > 100 µM (inactive); in test [15] it was 84.3 µM (inactive); in test [16], > 100 µM (inactive); in test [17], 15.9 µM (inactive); in [18], > 100 µM (inactive); in test [19], 46.9 µM (inactive).
`COC(=O)/C=C(\C)CCC1SC1(C)C` (stereo not drawn): the GI50 in [1] is > 100 µM (inactive); in test [2] it was > 100 µM (inactive); in test [3], > 100 µM (inactive); in test [4] it was > 100 µM (inactive); in test [5] it was > 100 µM (inactive); in test [6], greater than 100 µM. In addition, the GI50 in test [7], in test [8], in test [9], in [10], in test [11] and in [12] was > 100 µM (inactive) each time. The GI50 in [13], in test [14], in [15], in test [16], in [17] and in [18] was > 100 µM (inactive) in each case. Besides, the GI50 in [19] and in [20] was > 100 µM (inactive) in each case.
Turning to `CC(=O)/N=C1/N(/C=C2\C(=O)Oc3ccccc3C2=O)C(=O)/C(=C/c2ccc(OC(C)=O)cc2)N1C`, the GI50 in test [1] is > 100 µM (inactive); in test [2] it was > 100 µM (inactive); in test [3] it was > 100 µM (inactive); in test [4] it was > 100 µM (inactive); in test [5], > 100 µM (inactive); in test [6] it was greater than 100 µM. Further, the GI50 in test [7], in [8], in test [9], in test [10], in test [11] and in test [12] was > 100 µM (inactive) throughout. Moreover, the GI50 in [14] is 88.9 µM (inactive); in [15], > 100 µM (inactive); in test [16], > 100 µM (inactive); in test [17] it was > 100 µM (inactive); in [18] it was > 100 µM (inactive); in test [19], > 100 µM (inactive). The GI50 in [20] is > 100 µM (inactive).
Take `COC(=O)[C@@H](NC(=O)[C@H](N)Cc1ccc(N(CCCl)CCCl)cc1)C(C)C`: the GI50 was 13.1 µM (inactive) in test [1]; 28.9 µM (inactive) in [2]; 2.39 µM (inactive) in [3]; 6.37 µM (inactive) in test [4]; 12.9 µM (inactive) in test [5]; 18.4 µM in test [6]. The GI50 in test [7] was 7.91 µM (inactive); in [8], 34 µM (inactive); in test [9], 25.1 µM (inactive); in test [10], 32.7 µM (inactive); in [11] it was 15.9 µM (inactive); in test [12], 5.92 µM (inactive). The GI50 in test [13] is 22.4 µM (inactive); in test [14] it was 11.1 µM (inactive); in [15], 3.56 µM (inactive); in test [16] it was 18.7 µM (inactive); in [17] it was 1.32 µM (inactive); in test [18] it was 5.55 µM (inactive). Moreover, the GI50 in test [19] is 18.2 µM (inactive); in test [20], 16.9 µM (inactive).
As to `N=c1c2c(=S)n(-c3ccccc3)c(=S)n(-c3ccccc3)c2nc(SCCCN2CCN(c3cccc(Cl)c3)CC2)n1-c1ccccc1`, the GI50 in test [1] is > 100 µM (inactive); in test [2], 62.8 µM (inactive); in test [3], 49.2 µM (inactive); in test [4], > 100 µM (inactive); in test [5], > 100 µM (inactive); in test [6], 59.2 µM. Also, the GI50 in test [7] is > 100 µM (inactive); in test [8], > 100 µM (inactive); in test [9], > 100 µM (inactive); in [10] it was > 100 µM (inactive); in test [11] it was 97.7 µM (inactive); in [12], > 100 µM (inactive). The GI50 is 37.5 µM (inactive) in [13]; 78.5 µM (inactive) in test [14]; > 100 µM (inactive) in test [15]; 98.6 µM (inactive) in [16]; > 100 µM (inactive) in [17]; > 100 µM (inactive) in test [18]. For the same molecule, in test [20], the GI50 was > 100 µM (inactive).
Consider `CC(C)=CC(=O)OC1C2C(C)=CC(O)C(O)C2(C)C2C3(O)OCC24C(CC(=O)OC14)C(C)C3O` (stereo not drawn), for which the GI50 in test [1] is 0.0647 µM (active); in test [2], 0.173 µM (active); in [3] it was 0.0649 µM (active); in [4], 0.104 µM (active); in test [5], 0.0378 µM (active); in test [6], 0.476 µM. In addition, the GI50 in test [7] is 0.0466 µM (active); in test [8], 0.143 µM (active); in [9], 0.0791 µM (active); in [10], 3.13 µM (inactive); in test [11], 0.0581 µM (active); in test [12] it was 0.0298 µM (active). The GI50 in [14] is 0.111 µM (active); in test [16], 0.106 µM (active); in test [17], 0.0251 µM (active); in test [18], 0.101 µM (active); in test [19] it was 1.16 µM (inactive); in [20] it was 0.778 µM (active).
